# Measured values published in the supplement of paper PMC10307832.
# Tests used:
# Assay in all cases: relative viability (nuclei count vs DMSO), 5 days (fraction); higher = more cells survive
# XMD8-85 + Olaparib = compound: CN1CCN(CC1)C2=CC(=C(C=C2)NC3=NC=C4C(=N3)N(C5=CC=CC=C5C(=O)N4C)C)OC [XMD8-85] + O=C(c1cc(Cc2n[nH]c(=O)c3ccccc23)ccc1F)N1CCN(C(=O)C2CC2)CC1 [Olaparib] (partner 8 µM)
# In short: (§1)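 Five library-drug doses in √10 steps were combined with a fixed anchor-drug dose, or a single drug was given alone, by pin tool to lung cancer cell lines in 1536-well plates the day after seeding. Nuclei were stained and counted after 5 days. Relative viability is the nuclei count in treated wells over that in vehicle wells, taken as the median of duplicate plates.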
# 4EGI-1 + Trametinib = compound: O=C(O)C(Cc1ccccc1[N+](=O)[O-])=NNc1nc(-c2ccc(Cl)c(Cl)c2)cs1 (mixture of isomers) [4EGI-1] + CC(=O)Nc1cccc(-n2c(=O)n(C3CC3)c(=O)c3c(Nc4ccc(I)cc4F)n(C)c(=O)c(C)c32)c1 [Trametinib] (partner 0.02 µM)
# In short: as §1
# 4EGI-1 + OSI-027 = compound: O=C(O)C(Cc1ccccc1[N+](=O)[O-])=NNc1nc(-c2ccc(Cl)c(Cl)c2)cs1 (mixture of isomers) [4EGI-1] + COc1cccc2cc(-c3nc([C@H]4CC[C@H](C(=O)O)CC4)n4ncnc(N)c34)[nH]c12 [OSI-027] (partner 0.5 µM)
# In short: as §1
# 4EGI-1 + Crizotinib = compound: O=C(O)C(Cc1ccccc1[N+](=O)[O-])=NNc1nc(-c2ccc(Cl)c(Cl)c2)cs1 (mixture of isomers) [4EGI-1] + C[C@@H](Oc1cc(-c2cnn(C3CCNCC3)c2)cnc1N)c1c(Cl)ccc(F)c1Cl [Crizotinib] (partner 1 µM)
# In short: as §1
Cell Line,relative viability (XMD8-85 + Olaparib; first compound 0.08 µM),relative viability (XMD8-85 + Olaparib; first compound 0.253 µM),relative viability (XMD8-85 + Olaparib; first compound 0.8 µM),relative viability (XMD8-85 + Olaparib; first compound 2.53 µM),relative viability (XMD8-85 + Olaparib; first compound 8 µM),relative viability (4EGI-1 + Trametinib; first compound 0.5 µM),relative viability (4EGI-1 + Trametinib; first compound 1.581 µM),relative viability (4EGI-1 + Trametinib; first compound 5 µM),relative viability (4EGI-1 + Trametinib; first compound 15.81 µM),relative viability (4EGI-1 + Trametinib; first compound 50 µM),relative viability (4EGI-1 + OSI-027; first compound 0.5 µM),relative viability (4EGI-1 + OSI-027; first compound 1.581 µM),relative viability (4EGI-1 + OSI-027; first compound 5 µM),relative viability (4EGI-1 + OSI-027; first compound 15.81 µM),relative viability (4EGI-1 + OSI-027; first compound 50 µM),relative viability (4EGI-1 + Crizotinib; first compound 0.5 µM),relative viability (4EGI-1 + Crizotinib; first compound 1.581 µM),relative viability (4EGI-1 + Crizotinib; first compound 5 µM),relative viability (4EGI-1 + Crizotinib; first compound 15.81 µM),relative viability (4EGI-1 + Crizotinib; first compound 50 µM)
NCI-H1437,0.611,0.62,0.657,0.611,0.439,0.608,0.537,0.549,0.337,0.207,0.945,0.853,0.886,0.743,0.256,0.931,0.9,0.77,0.837,0.315
H3255,0.581,0.603,0.512,0.504,0.369,0.679,,0.614,,0.523,0.655,0.564,0.611,0.448,0.578,1.14,0.573,0.856,0.612,0.541
NCI-H322M,0.912,0.795,0.899,0.71,0.647,0.525,,0.476,0.514,0.452,0.63,,0.546,0.532,0.223,0.947,0.815,1.02,0.823,1.02
UMC-11,0.475,0.358,0.389,0.325,0.231,0.984,0.71,0.771,0.873,0.493,0.465,0.526,0.507,0.484,0.284,0.718,0.594,0.643,0.602,0.314
NCI-H661,0.798,0.795,0.768,0.854,0.525,0.653,0.524,0.572,0.439,0.29,0.713,0.583,0.649,0.383,0.245,0.903,,0.954,0.903,0.882
NCI-H1915,0.291,0.263,0.252,0.222,0.185,0.367,0.234,0.308,0.289,0.245,0.623,0.448,0.625,0.617,0.287,0.924,0.62,0.847,0.907,0.477
NCI-H2009,0.776,0.748,0.779,0.544,0.268,0.339,0.28,0.306,0.24,0.139,0.765,0.651,0.768,0.657,0.161,1.12,1.05,1.06,0.988,0.247
RERF-LC-KJ,1.05,0.927,0.929,0.872,0.769,0.887,0.679,0.851,0.726,0.516,0.665,,0.529,0.413,0.296,0.852,0.676,0.815,0.675,0.684
